Like-named read-outs stand apart in the source and are kept apart here.
Columns and labels:
[1] = system: Murine leukemia L1210 cells; test: In vitro growth inhibition of L1210 cells (MTT, 72 hr); type: cell-based; settings: Mus musculus, read-out: L1210 IC50
Summary of the method: (§1)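 Cells seeded on day 0 (1×10^3 L1210 or 8×10^2 Clone A per well), graded compound concentrations added on day 1, then 72 hr at 37 °C. MTT 4 h, formazan dissolved in acidic isopropanol, read at 570/630 nm; IC50 from curve fit as half-maximal inhibition of population doublings, eight replicates.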

[2] = system: Clone A human colon cancer cells; test: In vitro growth inhibition of Clone A cells (MTT, 72 hr); type: cell-based; settings: read-out: Clone A IC50
Summary of the method: as §1

DLD-2 human colon tumor = test: In vivo human tumor xenograft DLD-2 in nude mice; settings: for Tumor Growth Inhibition activity against DLD-2 (in words): NCI criteria
Excerpt: (§2) The DLD-2 human colon tumor and MX-1 human mammary carcinoma, were originally obtained from a surgically-removed primary colon carcinoma or breast tumor respectively. The human tumor lines were maintained by serial passage in athymic nude mice. The MX-1 human mammary carcinoma is an established tumor used by the NCI. The DLD-2 human colon tumor has been well characterized. (Dexter, D. L.; Spremulli, E. N.; Matook, G. M.; Diamond, I.; Calabresi, P. Cancer Research 1982, 42, 5010; Dexter, D. L.; Barbosa, J. A.; Calabresi, P. Cancer Research 1979, 39, 1020.)
(§3) The mice used in these experiments were outbred Swiss mice or CD-1 mice bearing the nude (nu/nu) gene. On Day 0, male and female mice weighing 22-30 g are inoculated with 0.2 mL of a 25% tumor mince. This mince is prepared by mincing fresh tumor tissue, grown subcutaneously in passage mice, in sterile physiological saline. Palpable tumors weighing approximately 50 mg appear in the mice within 7-10 days after inoculation. The mice are pair matched by tumor weight and sex into groups of ten each and the test compounds and vehicle control are administered intravenously (i.v.) once daily for nine consecutive days. A >20% decrease in body weight on Day 5 following compound administration is considered an indication of toxicity. Tumor measurements and body weights are recorded once a week. Fifteen to eighteen days after the initial injection the mice are weighed, sacrificed, and the tumors excised and weighed.
(§4) The efficacy of the test compounds is determined by the extent of tumor growth inhibition in treated versus vehicle-treated control mice. Initial tumor weights (mg) are calculated from the tumor dimensions (mm) obtained from caliper measurements, using the formula for a prolate ellipsoid (mg of tumor weight=(length×width^2)/2). Net tumor weights are calculated for each of the treated groups and the vehicle-treated control group by subtracting the initial tumor weight from the final tumor weight (Day 15-18). Results are expressed as a percentage decrease relative to the mean tumor weight for the control vehicle-treated group.
(§5) Tumor Growth Inhibition= [formula]
(§6) The evaluation criteria of the National Cancer Institute for activity in in vivo cancer models were used. Tumor growth inhibition of 58-89% against the various xenografts is considered moderate activity, and inhibition of ≥90% is considered good to excellent activity. Actual tumor regressions (IR=incomplete regression; FR=full regression) indicate excellent to outstanding activity.

physchem = settings: water
[3] = system: MX-1 human mammary carcinoma; test: In vivo human tumor xenograft MX-1 in nude mice; settings: for Tumor Growth Inhibition activity against MX-1 (in words): NCI criteria
Excerpt: as §2, §3, §4, §5, §6

[4] = i.v. once daily for nine days, nude mice
[5] = Mus musculus, DLD2, iv, 216 h, read-out: DLD-2 percent tumor growth inhibition
[6] = Mus musculus, iv, 216 h, read-out: MX-1 percent tumor growth inhibition
[7] = Mus musculus, iv, 216 h, read-out: MX-1 tumor regressions, IR=incomplete regression

## CS(=O)(=O)O.CS(=O)(=O)O.C[C@H](CNCCNC[C@@H](C)N1C(=O)c2cccc3c2c(cc2ccncc23)C1=O)N1C(=O)c2cccc3cc([N+](=O)[O-])cc(c23)C1=O [Example 118, (R,R)-1-[2-(6-Azaphenanthrene-1,10-dicarboximido)propylamino]-2-[2-(3-nitronaphthalene-1,8-dicarboximido)propylamino]ethane Dihydromethanesulfonate]
[1]; L1210 cells, 72 hr, MTT
  IC50: 0.029 µg/mL
[2]; Clone A cells, 72 hr, MTT
  IC50: 0.8 ng/mL
DLD-2 human colon tumor; 6 mg/kg, i.v. once daily for nine days, nude mice
  DLD-2 tumor regressions, IR=incomplete regression: 7/9
DLD-2 human colon tumor; Mus musculus, DLD2, iv, 216 h, 6 mg/kg, i.v. once daily for nine days, nude mice, read-out: DLD-2 percent tumor growth inhibition
  inhibition in vivo at 6 mg/kg: 99%
DLD-2 human colon tumor; [4]
  Tumor Growth Inhibition activity against DLD-2 (in words): moderate to excellent
physchem
  solubility: 65.1 mg/mL
[3]; Mus musculus, iv, 216 h, 3 mg/kg, i.v. once daily for nine days, nude mice, read-out: MX-1 tumor regressions, IR=incomplete regression (converted)
  responders at 3 mg/kg: 100%
[3]; [4]
  Tumor Growth Inhibition activity against MX-1 (in words): moderate to excellent

## CS(=O)(=O)O.CS(=O)(=O)O.Cc1cnc2c(c1)cc1c3c(cc([N+](=O)[O-])cc32)C(=O)N([C@H](C)CNC[C@@H](C)NC[C@@H](C)N2C(=O)c3cc([N+](=O)[O-])cc4c3c(cc3cc(C)cnc34)C2=O)C1=O [Example 25, (R,R)-1,2-bis-[2-(3-Nitro-7-methyl-5-azaphenanthrene-1, 10dicarboximido)propylamino]-(R)-1-methylethane Dihydromethanesulfonate]
[1]; L1210, 72 h
  IC50: 0.048 µg/mL
Solubility in water
  solubility: 4820 µg/mL
[2]; 72 h
  IC50: 10 ng/mL
DLD-2 human colon tumor; [5]
  inhibition in vivo at 25 mg/kg: 97%
[3]; 25 mg/kg, i.v. once daily for nine days, nude mice
  MX-1 tumor regressions, FR=full regression: 1/8
[3]; [6]
  inhibition in vivo at 25 mg/kg: 99%
[3]; [7]
  responders at 25 mg/kg: 75%
[3]; [4]
  Tumor Growth Inhibition activity against MX-1 (in words): moderate to excellent

## CS(=O)(=O)O.O=C1c2cccc3cc([N+](=O)[O-])cc(c23)C(=O)N1CCCCNCCCN1C(=O)c2cc([N+](=O)[O-])cc3c2c(cc2ncccc23)C1=O [Example 115, 4-[3-(3-Nitro-8-azaphenanthrene-1,10-dicarboximido)propylamino]-1-(3-nitronaphthalene-1,8dicarboximido)butane Hydromethanesulfonate]
[1]; L1210, 72 h
  IC50: 0.003 µg/mL
Solubility in water
  solubility: 150 µg/mL
[2]; 72 h
  IC50: 1 ng/mL
DLD-2 human colon tumor; [5]
  inhibition in vivo at 10 mg/kg: 90%
DLD-2 human colon tumor; [4]
  Tumor Growth Inhibition activity against DLD-2 (in words): moderate to excellent
[3]; [6]
  inhibition in vivo at 6 mg/kg: 95%
[3]; [7]
  responders at 6 mg/kg: 12.5%
[3]; [4]
  Tumor Growth Inhibition activity against MX-1 (in words): moderate to excellent

## CS(=O)(=O)O.CS(=O)(=O)O.Cc1cnc2c(c1)cc1c3c(cc([N+](=O)[O-])cc32)C(=O)N([C@H](C)CNCCNC[C@@H](C)N2C(=O)c3cc([N+](=O)[O-])cc4c3c(cc3cc(C)cnc34)C2=O)C1=O [Example 13, (R, R) -1,2-bis-[2-(3-Nitro-7-methyl-5-azaphenanthrene-1, 10-dicarboximido)propylamino]ethane Dihydromethanesulfonate]
[1]; L1210, 72 h
  IC50: 0.065 µg/mL
Solubility in water
  solubility: 7100 µg/mL
[2]; 72 h
  IC50: 30 ng/mL
DLD-2 human colon tumor; 12.5 mg/kg, i.v. once daily for nine days, nude mice
  DLD-2 tumor regressions, IR=incomplete regression: 1/9
DLD-2 human colon tumor; [5]
  inhibition in vivo at 12.5 mg/kg: 90%
DLD-2 human colon tumor; [4]
  Tumor Growth Inhibition activity against DLD-2 (in words): moderate to excellent
[3]; [6]
  inhibition in vivo at 12.5 mg/kg: 99%
[3]; [7]
  responders at 12.5 mg/kg: 77.8%
[3]; [4]
  Tumor Growth Inhibition activity against MX-1 (in words): moderate to excellent

Source: patent publication US5585382A, “Polycyclic and heterocyclic chromophores for bis-imide tumoricidals” (The DuPont Merck Pharmaceutical Company, priority 1995, dated 1996)
